Data reported in publication PMC6934184, “Selective DNA-PKcs inhibition extends the therapeutic index of localized radiotherapy and chemotherapy” (The Journal of Clinical Investigation, 2019).

Target: T1, PRKCG (PKC gamma) (Homo sapiens, UniProt P05129)
T1 construct: purchased Thermo Fisher Scientific (Life Technologies) SelectScreen
Assay: SelectScreen Z'LYTE
Type: biochemical
Method in brief: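 NU5455 was profiled across the SelectScreen Broad panel of kinase activity and binding assays. Z'LYTE reactions such as CSF1R ran at apparent Km ATP, while the Adapta CAMK1 assay used ATP listed as 10. Values are given as percent.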

SMILES: CN(C(=O)CN1CCOCC1)c1ccc2sc3c(-c4cccc5c(=O)cc(N6CC7CCC(C6)O7)oc45)cccc3c2c1 [NU5455]
- inhibition at 1 µM: 7.6%
